pEC50: −log10 of the molar value. Structures can show the parent of a compound that is named as a salt.
Target: T1, human μ (mu, MOP) receptor (Homo sapiens, UniProt P35372)
T1 construct: expressed in transfected cells; host or cells: CHO cells
Test: cAMP assay in CHO cells expressing human mu receptor, agonist assay
Format: cell-based

T1 sequence (P35372 whole entry): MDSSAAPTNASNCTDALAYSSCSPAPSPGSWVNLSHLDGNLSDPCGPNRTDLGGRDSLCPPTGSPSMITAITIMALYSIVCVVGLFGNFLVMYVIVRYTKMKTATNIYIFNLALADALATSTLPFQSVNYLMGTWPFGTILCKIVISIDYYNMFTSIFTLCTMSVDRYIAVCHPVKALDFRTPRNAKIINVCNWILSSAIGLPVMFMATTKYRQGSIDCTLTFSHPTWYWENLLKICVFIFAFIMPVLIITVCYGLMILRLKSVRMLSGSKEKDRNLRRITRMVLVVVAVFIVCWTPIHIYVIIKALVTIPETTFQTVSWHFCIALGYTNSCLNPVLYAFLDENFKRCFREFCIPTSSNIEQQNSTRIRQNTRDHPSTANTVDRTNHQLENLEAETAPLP

For `C[N@@+]1(CC2CC2)CC[C@]23c4c5ccc(O)c4OC2C(=O)CCC3(O)C1C5` (stereo partly drawn) [S-MNTX, (S)-N-(cyclopropylmethyl)-noroxymorphone methyl salt], the pEC50 (CHO cells, human recombinant mu receptor, 10 uM forskolin, 100 uM IBMX, read-out: EC50 (agonist response, inhibition of forskolin-induced cAMP)) was 6.22, the “nature of the agonist response” value (cAMP agonist assay) was “complete (not partial)” and the “cAMP agonist assay value (Table IX.1)” value (log{M} conc −4.0) was 3. The “cAMP agonist assay value (Table IX.1)” value (log{M} conc −4.5) was −3, the “cAMP agonist assay value (Table IX.1)” value (log{M} conc −5.0) was 4 and the “cAMP agonist assay value (Table IX.1)” value (log{M} conc −5.5) was 11. The “cAMP agonist assay value (Table IX.1)” value (log{M} conc −6.0) was 32, the “cAMP agonist assay value (Table IX.1)” value (log{M} conc −6.5) was 66 and the “cAMP agonist assay value (Table IX.1)” value (log{M} conc −7.0) was 70. For the same compound, the “cAMP agonist assay value (Table IX.1)” value (log{M} conc −7.5) was 79, the “cAMP agonist assay value (Table IX.1)” value (log{M} conc −8.0) was 104 and the “cAMP agonist assay value (Table IX.1)” value (log{M} conc −9.0) was 86.

From US7563899B2, “(S)-N-methylnaltrexone” (Progenics Pharmaceuticals, Inc., priority 2005, dated 2009)
